From ChEMBL document CHEMBL1201862, “PubChem BioAssay data set” (2004)
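Tested at 5 concentrations; 48 h exposure; 96-well plates; endpoints linearly interpolated, else capped at highest concentration. GI50 is the concentration that inhibits growth by half.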 The source made the active and inactive calls. Rule as the data show it: active = GI50 up to about 1.1 µM and inactive = higher.

How the values were obtained:
Assay in all cases: DTP human tumour cell line panel, 48 h
[1] = test system: SR
[2] = test system: TK-10
[3] = test system: MDA-N
[4] = test system: OVCAR-8
[5] = test system: SK-MEL-2
[6] = test system: NCI-H226
[7] = test system: CAKI-1
[8] = test system: OVCAR-3
[9] = test system: M14
[10] = test system: NCI-H23
[11] = test system: CCRF-CEM
[12] = test system: HOP-92
[13] = test system: SNB-19
[14] = test system: OVCAR-5
[15] = test system: ACHN
[16] = test system: SNB-75
[17] = test system: Hs-578T
[18] = test system: A498
[19] = test system: EKVX
[20] = test system: K562

CC1OC2OC3C(OCC(O)C3O)OC(=O)[C@]34CCC(C)(C)CC3C3=CCC5[C@@]6(C)C[C@H](O)[C@H](OC7OC(CO)C(O)C(O)C7OC7OCC(OC(=O)CC(C)(O)CC(=O)OC1C(OC1OC(CO)C(O)C(O)C1O)C2O)C(O)C7O)[C@@](C)(CO)C6CC[C@@]5(C)[C@]3(C)CC4 (stereo partly drawn)
GI50 [1]: 7 µM (inactive) | GI50 [2]: 10.8 µM (inactive) | GI50 [3]: 2.44 µM (inactive) | GI50 [4]: 12.3 µM (inactive) | GI50 [5]: 4.18 µM (inactive) | GI50 [6]: 17.2 µM (inactive) | GI50 [7]: 6.41 µM (inactive) | GI50 [8]: 9.77 µM (inactive) | GI50 [9]: 3.41 µM (inactive) | GI50 [10]: 4.33 µM (inactive) | GI50 [11]: 12.3 µM (inactive) | GI50 [12]: 10.3 µM (inactive) | GI50 [13]: 11.4 µM (inactive) | GI50 [14]: 8.91 µM (inactive) | GI50 [15]: 8.3 µM (inactive) | GI50 [16]: 11.5 µM (inactive) | GI50 [17]: 14.6 µM (inactive)

CC(=O)OCC1OC(c2nc3ccccc3s2)=CC(OC(C)=O)C1OC(C)=O (stereo not drawn)
GI50 [1]: 41.1 µM (inactive) | GI50 [2]: > 100 µM (inactive) | GI50 [3]: > 100 µM (inactive) | GI50 [4]: > 100 µM (inactive) | GI50 [6]: > 100 µM (inactive) | GI50 [7]: > 100 µM (inactive) | GI50 [8]: > 100 µM (inactive) | GI50 [10]: > 100 µM (inactive) | GI50 [11]: > 100 µM (inactive) | GI50 [13]: > 100 µM (inactive) | GI50 [18]: > 100 µM (inactive) | GI50 [14]: > 100 µM (inactive) | GI50 [15]: > 100 µM (inactive) | GI50 [16]: 22.2 µM (inactive) | GI50 [19]: > 100 µM (inactive) | GI50 [20]: 50.5 µM (inactive) | GI50 [17]: > 100 µM (inactive)

O=C1C2CC=CCC2C(=O)N1n1c(Cc2ccccc2)n[nH]c1=O (stereo not drawn)
GI50 [1]: > 100 µM (inactive) | GI50 [2]: > 100 µM (inactive) | GI50 [3]: > 100 µM (inactive) | GI50 [4]: > 100 µM (inactive) | GI50 [5]: > 100 µM (inactive) | GI50 [6]: > 100 µM (inactive) | GI50 [7]: > 100 µM (inactive) | GI50 [8]: > 100 µM (inactive) | GI50 [9]: > 100 µM (inactive) | GI50 [10]: > 100 µM (inactive) | GI50 [11]: > 100 µM (inactive) | GI50 [12]: > 100 µM (inactive) | GI50 [13]: > 100 µM (inactive) | GI50 [18]: > 100 µM (inactive) | GI50 [14]: > 100 µM (inactive) | GI50 [15]: > 100 µM (inactive) | GI50 [19]: > 100 µM (inactive) | GI50 [20]: > 100 µM (inactive) | GI50 [17]: > 100 µM (inactive)

O=[N+]([O-])c1cc(Br)cc2cc(Cl)cnc12
GI50 [1]: > 100 µM (inactive) | GI50 [2]: > 100 µM (inactive) | GI50 [3]: > 100 µM (inactive) | GI50 [4]: 62.4 µM (inactive) | GI50 [6]: > 100 µM (inactive) | GI50 [7]: > 100 µM (inactive) | GI50 [8]: > 100 µM (inactive) | GI50 [9]: > 100 µM (inactive) | GI50 [10]: > 100 µM (inactive) | GI50 [11]: > 100 µM (inactive) | GI50 [12]: 1.02 µM (active) | GI50 [13]: > 100 µM (inactive) | GI50 [18]: 75.7 µM (inactive) | GI50 [14]: > 100 µM (inactive) | GI50 [15]: > 100 µM (inactive) | GI50 [16]: 31.8 µM (inactive) | GI50 [19]: > 100 µM (inactive) | GI50 [20]: > 100 µM (inactive) | GI50 [17]: 36.9 µM (inactive)

O=C(CNc1ccccc1[N+](=O)[O-])Nn1cnc2ccc(S(=O)(=O)Nc3ccccc3[N+](=O)[O-])cc2c1=O
GI50 [1]: > 100 µM (inactive) | GI50 [2]: > 100 µM (inactive) | GI50 [3]: > 100 µM (inactive) | GI50 [4]: > 100 µM (inactive) | GI50 [5]: > 100 µM (inactive) | GI50 [6]: > 100 µM (inactive) | GI50 [7]: > 100 µM (inactive) | GI50 [8]: > 100 µM (inactive) | GI50 [9]: > 100 µM (inactive) | GI50 [10]: > 100 µM (inactive) | GI50 [11]: > 100 µM (inactive) | GI50 [12]: > 100 µM (inactive) | GI50 [13]: > 100 µM (inactive) | GI50 [14]: > 100 µM (inactive) | GI50 [15]: > 100 µM (inactive) | GI50 [16]: > 100 µM (inactive) | GI50 [19]: > 100 µM (inactive) | GI50 [20]: > 100 µM (inactive) | GI50 [17]: 22.1 µM (inactive)

Nc1ccc2c(c1)nc1n2C(c2c(F)cccc2F)SC1 (stereo not drawn)
GI50 [1]: > 100 µM (inactive) | GI50 [2]: > 100 µM (inactive) | GI50 [3]: > 100 µM (inactive) | GI50 [4]: > 100 µM (inactive) | GI50 [5]: > 100 µM (inactive) | GI50 [7]: 53.7 µM (inactive) | GI50 [8]: > 100 µM (inactive) | GI50 [9]: > 100 µM (inactive) | GI50 [10]: > 100 µM (inactive) | GI50 [11]: 61.2 µM (inactive) | GI50 [13]: > 100 µM (inactive) | GI50 [18]: > 100 µM (inactive) | GI50 [14]: > 100 µM (inactive) | GI50 [15]: > 100 µM (inactive) | GI50 [16]: > 100 µM (inactive) | GI50 [19]: > 100 µM (inactive) | GI50 [20]: > 100 µM (inactive) | GI50 [17]: > 100 µM (inactive)

COc1cccc2c1C(=O)c1c(O)c3c(c(O)c1C2=O)C[C@@](O)(C(=O)CO)C[C@@H]3OC1CC(N2CCOCC2C#N)C(O)C(C)O1 (stereo partly drawn)
GI50 [1]: 1.27e-05 µM (active) | GI50 [2]: 0.000149 µM (active) | GI50 [3]: 9.08e-05 µM (active) | GI50 [4]: 5.18e-05 µM (active) | GI50 [6]: 1.46e-05 µM (active) | GI50 [7]: 3.53e-05 µM (active) | GI50 [8]: 2.27e-05 µM (active) | GI50 [9]: 5.42e-05 µM (active) | GI50 [10]: 2.45e-05 µM (active) | GI50 [11]: 1.94e-05 µM (active) | GI50 [12]: 9.53e-05 µM (active) | GI50 [13]: 3.52e-05 µM (active) | GI50 [18]: 2.58e-05 µM (active) | GI50 [14]: 4.98e-05 µM (active) | GI50 [15]: 3.27e-05 µM (active) | GI50 [16]: 1.37e-05 µM (active) | GI50 [19]: 0.000227 µM (active) | GI50 [20]: 2.52e-05 µM (active) | GI50 [17]: 5.73e-05 µM (active)
